Data: the supplement of paper PMC10981050

Experiments:
Assay in all cases: cell viability relative to vehicle control; higher = less cytotoxic
Settings in all cases: SRSF2 genotype: SRSF2 WT
MARIMO = test system: MARIMO
Protocol: (§1)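 Isogenic SRSF2 WT and CRISPR SRSF2 P95 mutant clones of MOLM14, OCI-AML2 and MARIMO were exposed to ROCK inhibitors at 7 doses (0.037 to 29.9 µM) for 48 h. Viability was read by CellTiter-Glo luminescence and normalised to the vehicle control on each plate (%).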

MOLM14 = test system: MOLM14
Protocol: as §1

OCI-AML2 = test system: OCI-AML2
Protocol: as §1

O=C(NCc1cccc(O)c1)Nc1nc(-c2ccncc2)cs1 [RKI-1447]
cell viability [%]
Settings | 0.037 µM | 0.129 µM | 0.369 µM | 0.997 µM | 3.49 µM | 9.97 µM | 29.9 µM
MARIMO | 102 | 101 | 101 | 98.4 | 94.49 | 75.9 | 20.3
MOLM14 | 97 | 80.3 | 70.7 | 66.31 | 60.68 | 33 | 1.24
OCI-AML2 | 98.1 | 73.5 | 44.7 | 34.5 | 27.9 | 22.8 | 4.32
